Like-named read-outs stand apart in the source and are kept apart here. Marks after values point to notes of the source that are not given here.

The test system of one data set is HeLa cells. As to conditions: irradiation dose of 5 J/cm^2; cited from earlier work. From the text: It is important to highlight that a direct comparison between the other reported PIs is difficult to make because of the diversity of conditions used to determine PI values. Because PI is influenced by a range of factors, including the cell type extent of permeability of a given agent and the irradiation dose.[72] […] Based on control studies with untreated CHO, A549, and HPAC cell monolayers, we selecte ...

The test system of data set [1] is CHO cells. Nature of the data set: Phototoxicity with dark control plate, 470 nm LED, alamar blue. In kind it is cell-based, Chinese hamster. As to conditions: 30 min incubation, 470 nm LED 17 J/cm^2, alamar blue, triplicate, read-out: IC50 under irradiation. As for the experimental part: (§1) All cell monolayers were prepared as described above for the phototoxicity assay. A549 and CHO cells were treated at varying concentrations of the complexes and incubated for 30 min in the absence of light, HPAC were incubated for 2 h to allow uptake. A 470 nm blue light LED array was used to irradiate the cells in the wells at a total dose of 17 ± 1.64 J/cm^2 (2 h at 2.37 ± 0.23 mW/cm^2). A dark control plate was performed alongside all phototoxicity plates. Irradiation conditions were tested on untreated cells to confirm cells remained viable at this dose before any experiments were performed and each phototoxicity plate included untreated test wells for cell viability comparison. All viability assays were performed in triplicate.
The test solutions were then decanted, and the wells replaced with phenol red free media. The phototoxicity plate was irradiated using a 470 nm LED, corresponding to which is close to the absorbance maximum associated with the ^1MLCT of the complex, total irradiation dose 17 ± 1.64 J/cm^2 (constituting 2 h at 2.37 ± 0.23 mW/cm^2) at 37 °C, and the control plate was maintained under the same conditions in the dark. […]
Similar to the phototoxicity studies in A549 cells, an incubation time of 30 min was selected for CHO cells to allow uptake. […] Cell viability was determined relative to untreated control wells using an alamar blue assay. […]
A general note: The colour change of resazurin is a common sign of viable cells or microbes.

Data set [2] has as its system HPAC multicellular spheroids (3D). The data set is classed as cell-based, human. Particulars: 24 h treatment, 23.5 h recovery, CellTiter-Glo 3D, average of three plates. As for the experimental part: Spheroid viability was evaluated using a CellTiter-Glo 3D assay. Although the alamar blue assay is a robust and reliable option for 2D cell viability, the CellTiter-Glo 3D assay is specifically designed to penetrate deeper into 3D cell culture and thus offers better specificity for these studies. Cells were seeded in round-bottom 96 well plates at 2 × 10^4 cells per well and grown for 96 h. The cells were treated for 24 h and a media change performed. A 470 nm LED was used to irradiate the spheroids at 4.27 ± 0.41 J/cm^2 (30 min at 2.37 ± 0.23 mW/cm^2) and a dark control plate was performed simultaneously. Irradiation conditions were tested on untreated spheroids to confirm whether viability remained unaffected at this irradiation dosage before any experiments were performed. The spheroids were allowed to recover and the CellTiter-Glo 3D assay was performed to determine cell viability as per the manufacturer’s protocol. Percentage cell viability was determined relative to the untreated control spheroids.
The dark and phototoxicity of the parent and peptide conjugates were also assessed in HPAC spheroids. […] Cell viability was determined using the CellTiter-Glo 3D luminescence-based assay, and viability assays were performed in triplicate. […] As in the 2D alamar blue assay protocol, % viability is calculated relative to untreated control spheroids.

In data set [3] the test system is A549 cells. How it is done: as §1
The phototoxicities of the Ru-bqp-ester, Ru-bqp-R8, and Ru-bqp-MPP were next compared across the three cell line monolayers. Two identical plates, a dark control and phototoxicity plate, were prepared and incubated with varying concentrations of Ru-bqp-ester, Ru-bqp-R8, and Ru-bqp-MPP for 30 min or 2 h depending on the cell line. The test solutions were then decanted, and the wells replaced with phenol red free media. The phototoxicity plate was irradiated using a 470 nm LED, corresponding to which is close to the absorbance maximum associated with the ^1MLCT of the complex, total irradiation dose 17 ± 1.64 J/cm^2 (constituting 2 h at 2.37 ± 0.23 mW/cm^2) at 37 °C, and the control plate was maintained under the same conditions in the dark. The cells were then incubated for a further 21.5 h at 37 °C with 5% CO2 to allow for cell recovery. An alamar blue assay was performed to assess cell viability.
To overcome potential efflux of the complexes from the A549 cells, a shorter complex incubation time of 30 min was selected prior to irradiation.

On the set-up of data set [4]: method as in doi:10.3390/organoids1020012, PMID 35485712. As to conditions: previously published, 298 K, deaerated MeOH/EtOH solution; printed in the MeCN row; cited from earlier work.
The subject of the next data set is HPAC spheroids. The experiment in a line: Uptake in spheroids, confocal imaging. Particulars: 24 h incubation.
Another data set has as its system HPAC cell monolayers. The data set is classed as cell-based, human. Particulars: 24 h incubation in the dark, alamar blue added immediately, no recovery, N=3, read-out: IC50, dark toxicity. As for the experimental part:
(§2) The alamar blue assay (Invitrogen) was used to assess the viability of A549, CHO, and HPAC cell monolayers treated with the Ru(II) probes, Ru-bqp-ester, Ru-bqp-MPP, Ru-bqp-R8. CHO, A549, and 2D HPAC cells were seeded in a 96-well plate (Nunc, flat bottom cell culture treated) at 1 × 10^4 cells per well, i.e., in 100 μL media for 24 h at 37 °C with 5% CO2. Ru-bqp-ester, Ru-bqp-R8, and Ru-bqp-MPP were added for 24 h at 37 °C and 5% CO2 in the absence of light. The alamar blue (Resazurin) assay was performed to measure cell viability by replacing the test solution with 100 μL of a 10% v/v media/resazurin solution and incubating for 5 h at 37 °C in the absence of light. Absorbance was measured using a BMG Labtech ClarioStar (plus) plate reader at 570 and 600 nm (corrected for background subtraction). Cell viability is presented as a percentage (%) compared to untreated control wells.
(§3) The alamar blue (Resazurin) assay was used to assess cell viability of CHO, A549, and HPAC cell monolayers after 24 h incubation in the dark with the complexes and conjugates. In the presence of metabolically active cells, the alamar blue dye is reduced to resorufin and changes from navy blue to a pink color depending on the number of viable cells. Thus, this assay can be used as a simple direct indicator of cell viability. […]

Data set [5] is described as follows: Photophysical measurements (luminescence lifetime, quantum yield). In kind it is physicochemical. How it is done: Absorbance measurements of the Ru(II) complexes at 20 μM were performed using a Jasco V670 spectrophotometer. Emission spectra were collected using a Varian Cary Eclipse fluorescence spectrophotometer and luminescent lifetime measurements were performed on a PicoQuant FluoTime 100 FLS TCSPC system using a 450 nm pulsed laser and an external pulse generator. Lifetime decay curves were analyzed using the PicoQuant Fluofit software with fitting criteria; 0.9 < X^2 < 1.1. For O2 sensitivity studies, the emission spectrum and luminescent lifetime of each complex (10 μM) were recorded under O2 saturation, and after N2 purge for 20 min. All measurements were performed in triplicate and reported as the mean ± SD.

Data set [6] has as its system CHO cells. The data set is classed as cell-based, Chinese hamster. Particulars: 24 h incubation in the dark, alamar blue added immediately, no recovery, N=3, read-out: IC50, dark toxicity. How it is done: as §2, §3
Data set [7] deals with A549 cells. Particulars: read-out: IC50, dark toxicity; A549, 24 h incubation in the dark, alamar blue added immediately, no recovery, N=3. How it is done: as §2, §3
A further data set relates to HPAC 2D cell monolayers. In kind it is cell-based, human. How it is done:
as §1
The test solutions were then decanted, and the wells replaced with phenol red free media. The phototoxicity plate was irradiated using a 470 nm LED, corresponding to which is close to the absorbance maximum associated with the ^1MLCT of the complex, total irradiation dose 17 ± 1.64 J/cm^2 (constituting 2 h at 2.37 ± 0.23 mW/cm^2) at 37 °C, and the control plate was maintained under the same conditions in the dark. The cells were then incubated for a further 21.5 h at 37 °C with 5% CO2 to allow for cell recovery. An alamar blue assay was performed to assess cell viability.
The HPAC cells required a longer incubation period of 2 h prior to irradiation to account for slower uptake. […] In summary, Ru-bqp-ester is minimally toxic in the dark but highly phototoxic in all test cells when activated using a 470 nm LED. Furthermore, the peptide conjugates Ru-bqp-R8 and Ru-bqp-MPP show phototoxic potential in cancerous cell lines A549 and HPAC selected for analysis. The increased uptake of the MPP peptide conjugate into the mitochondria, as determined by our co-localization studies, could be linked to the higher phototoxicity of the complex in A549 and HPAC cells and also the increased dark toxicity in HPAC and CHO cell monolayers in comparison to the parent and R8 peptide conjugate.

The subject of the next data set is HL60 leukemia cells. On the set-up: method as in PMID 22553960. Particulars: cited from earlier work.
A further data set has as its system A549 cell monolayers. On the set-up: method as in PMID 22553960. As to conditions: cited from earlier work.

Experimental for HPAC spheroids: HPAC cells were seeded in U-bottom 96 well-plates pre-treated with 0.5% polyHEMA [poly(2-hydroxyethyl methacrylate), Sigma in 95% ethanol] at 2 × 10^4 cells per well. The plate was then centrifuged at 700 rpm at 37 °C using a BMG Labtech ClarioStar (plus) plate reader for 10 min. The cells were incubated for 96 h to allow spheroid formation before any dye was added for imaging studies. Ru-bqp-ester, Ru-bqp-MPP, and Ru-bqp-R8 were added to the spheroids at 30 and 100 μM in the 96 well plates and after 24 h incubation, the spheroids were carefully transferred to an 8-chamber slide (ibidi), with a single spheroid per chamber, and directly imaged using a Leica TCS DMi8 confocal microscope (40× oil immersion objective). Hoechst 33342 nuclear stain (1 μg/mL) was added to the spheroids for 45 min as a contrast agent and excited using a 405 nm laser with emission collected between 425 and 475 nm. The Ru(II) complexes were excited using a white light laser at 490 nm and emission collected between 580 and 730 nm. Spheroid images were acquired using z-scanning across the z-axis of the samples. On average, 40–50 images were acquired per z-scan and used to obtain 3D spheroid reconstructions using Leica Application Suite X (LAS X) software.
Confocal fluorescence imaging was performed to determine if the cellular uptake observed in 2D culture extends to 3D models. […]

Regarding Photofrin, in the data set with HeLa cells, the PI is recorded as above 10.
With [Ru(bqp)(bqpCOOEt)]^2+ [Ru-bqp-ester], the half-maximal inhibitory concentration (IC50) (commonly the concentration that gives 50% inhibition) with CHO cells [1] was below 5 µM; in data set [2] (470 nm LED 4.27 ± 0.41 J/cm^2 (30 min), read-out: IC50 light, HPAC multicellular spheroids (3D)), above 100 µM; in [2] (dark control plate, read-out: IC50 dark, HPAC multicellular spheroids (3D)), above 100 µM; in the data set with A549 cells [3] (read-out: IC50 under irradiation, A549, 30 min incubation, 470 nm LED 17 ± 1.64 J/cm^2 (2 h), 21.5 h recovery, alamar blue), below 5 µM; in the data set on HPAC cell monolayers, above 100 µM; with CHO cells [6], above 100 µM. The IC50 in the data set on A549 cells [7] is above 100 µM; in the data set with HPAC 2D cell monolayers (2 h incubation, 470 nm LED 17 J/cm^2, read-out: IC50 under irradiation, HPAC cells) it was 0.77 ± 0.11 µM; in the data set with HPAC 2D cell monolayers (dark control plate, 2 h incubation then recovery in the dark, alamar blue, average of three plates, triplicate per plate, read-out: IC50 dark, HPAC 2D cell monolayers) it was 585 ± 6.28 µM. In addition, the “cell viability, A549 dark control” value with A549 cells [3] (dark control plate, 30 min incubation, up to 100 μM, not graphed) is recorded as above 80%. In addition, the “A549 cells dead following photoirradiation” value in the data set on A549 cells [3] (dose of <5 μM, 30 min incubation, 470 nm LED 17 J/cm^2) is recorded as “More than 70%”. In data set [4], the emission quantum yield Φ is 4%. Besides, the τlum deaerated in data set [4] is reported as 4300 ^a ns; in data set [5] (PBS (pH 7.4), deaerated (N2 purge 20 min), mean ± SD of triplicate), 1320 ± 20 ns. Besides, the figures for the “uptake in HPAC spheroids” value in the data set on HPAC spheroids (30 μM) and in the data set with HPAC spheroids (100 μM) were “some uptake” and “complete internalization”, respectively. Moreover, the τlum aerated in data set [5] (MeCN, mean ± SD of triplicate) was 384 ± 1 ns; in [5] (PBS (pH 7.4), 450 nm pulsed laser, TCSPC, mean ± SD of triplicate), 782 ± 18 ns. Also, the “emission lifetime on deaeration” value in data set [5] (PBS buffer (pH 7.4), deaerated) is “over 1.3 μs”. The “PI (phototoxic index), HPAC 2D cell monolayers” value in the data set with HPAC 2D cell monolayers (ratio of dark to light IC50 values, 17 ± 1.64 J/cm^2 at 470 nm) came out at 760.
Consider `NCC(=O)CCC(=O)O` [ALA, aminolevulinic acid], for which the PI is reported as above 18 in the data set on HL60 leukemia cells and 4.2 with A549 cell monolayers.
